Test results from ChEMBL document CHEMBL1141981, “Studies on synthesis and evaluation of quantitative structure-activity relationship of 5-[(3'-chloro-4',4'-disubstituted-2-oxoazetidinyl)(N-nitro)amino]-6-hydroxy-3-alkyl/aryl[1,3]azaphospholo[1,5-a]pyridin-1-yl-phosphorus dichlorides” (2005).
Several values for one entry are separate records, joined by “and”; a condition that tells them apart may be missing. Equal values may be shown once.

Experiments:
Assay type in all cases: functional
[1] = Minimum inhibitory concentration against Candida albicans
[2] = test system: Staphylococcus aureus; test: Minimum inhibitory concentration against Staphylococcus aureus
[3] = test system: Bacillus subtilis; test: Minimum inhibitory concentration against Bacillus subtilis

SMILES | -Log MIC [1] | -Log MIC [2] [ug ml-1] | -Log MIC [3] [ug ml-1]
Clc1ccccc1C(c1ccccc1)(c1ccccc1)n1ccnc1 | 3.14 µg ml-1 and 3.24 µg ml-1 | – | –
CC1(C)S[C@@H]2[C@H](NC(=O)[C@H](N)c3ccccc3)C(=O)N2[C@H]1C(=O)O [AMPICILLIN] | – | 3.097 | 4.606
